Experimental data as given in the NIST ThermoML archive (doi:10.1016/j.fluid.2018.09.024).
± gives the expanded uncertainty stated by the source.

Assay: activity coefficient (dimensionless); of the first substance listed, at infinite dilution; xn = mol fraction of the nth substance listed
Details: 101.33 kPa, Liquid, Chromatography, x1 = 0

## CCC(C)(C)OC [2-methoxy-2-methylbutane] + CCCCCCCCCCCC[N+](C)(C)CCOc1ccccc1.N#C[N-]C#N
328.15 K
  activity coefficient: 2.49 ± 0.17
338.15 K
  activity coefficient: 2.56 ± 0.17
348.15 K
  activity coefficient: 2.63 ± 0.18
358.15 K
  activity coefficient: 2.69 ± 0.18
368.15 K
  activity coefficient: 2.75 ± 0.19
378.15 K
  activity coefficient: 2.81 ± 0.19

## CCC(C)(C)OC [2-methoxy-2-methylbutane] + CCCCCCCCCCCC[N+](C)(C)CCOc1ccccc1.O=S(=O)([N-]S(=O)(=O)C(F)(F)F)C(F)(F)F
318.15 K
  activity coefficient: 1.22 ± 0.08
328.15 K
  activity coefficient: 1.29 ± 0.08
338.15 K
  activity coefficient: 1.36 ± 0.09
348.15 K
  activity coefficient: 1.43 ± 0.09
358.15 K
  activity coefficient: 1.5 ± 0.1
368.15 K
  activity coefficient: 1.56 ± 0.1

## COC(C)(C)C [2-methoxy-2-methylpropane] + CCCCCCCCCCCC[N+](C)(C)CCOc1ccccc1.N#C[N-]C#N
328.15 K
  activity coefficient: 2.28 ± 0.16
338.15 K
  activity coefficient: 2.33 ± 0.16
348.15 K
  activity coefficient: 2.38 ± 0.16
358.15 K
  activity coefficient: 2.43 ± 0.17
368.15 K
  activity coefficient: 2.48 ± 0.17
378.15 K
  activity coefficient: 2.53 ± 0.17

## COC(C)(C)C [2-methoxy-2-methylpropane] + CCCCCCCCCCCC[N+](C)(C)CCOc1ccccc1.O=S(=O)([N-]S(=O)(=O)C(F)(F)F)C(F)(F)F
318.15 K
  activity coefficient: 1.03 ± 0.06
328.15 K
  activity coefficient: 1.09 ± 0.07
338.15 K
  activity coefficient: 1.15 ± 0.07
348.15 K
  activity coefficient: 1.21 ± 0.08
358.15 K
  activity coefficient: 1.27 ± 0.08
368.15 K
  activity coefficient: 1.33 ± 0.09

## CC(C)CO [2-methyl-1-propanol] + CCCCCCCCCCCC[N+](C)(C)CCOc1ccccc1.N#C[N-]C#N
328.15 K
  activity coefficient: 0.451 ± 0.036
338.15 K
  activity coefficient: 0.46 ± 0.036
348.15 K
  activity coefficient: 0.469 ± 0.037
358.15 K
  activity coefficient: 0.477 ± 0.037
368.15 K
  activity coefficient: 0.486 ± 0.037
378.15 K
  activity coefficient: 0.494 ± 0.038

## CC(C)CO [2-methyl-1-propanol] + CCCCCCCCCCCC[N+](C)(C)CCOc1ccccc1.O=S(=O)([N-]S(=O)(=O)C(F)(F)F)C(F)(F)F
318.15 K
  activity coefficient: 1.4 ± 0.09
328.15 K
  activity coefficient: 1.33 ± 0.09
338.15 K
  activity coefficient: 1.26 ± 0.08
348.15 K
  activity coefficient: 1.21 ± 0.08
358.15 K
  activity coefficient: 1.16 ± 0.07
368.15 K
  activity coefficient: 1.12 ± 0.07

## CC(C)(C)O [2-methylpropan-2-ol] + CCCCCCCCCCCC[N+](C)(C)CCOc1ccccc1.N#C[N-]C#N
328.15 K
  activity coefficient: 0.539 ± 0.039
338.15 K
  activity coefficient: 0.554 ± 0.04
348.15 K
  activity coefficient: 0.569 ± 0.041
358.15 K
  activity coefficient: 0.584 ± 0.041
368.15 K
  activity coefficient: 0.598 ± 0.042
378.15 K
  activity coefficient: 0.613 ± 0.043

## CC(C)(C)O [2-methylpropan-2-ol] + CCCCCCCCCCCC[N+](C)(C)CCOc1ccccc1.O=S(=O)([N-]S(=O)(=O)C(F)(F)F)C(F)(F)F
318.15 K
  activity coefficient: 1.14 ± 0.07
328.15 K
  activity coefficient: 1.1 ± 0.07
338.15 K
  activity coefficient: 1.06 ± 0.07
348.15 K
  activity coefficient: 1.02 ± 0.06
358.15 K
  activity coefficient: 0.986 ± 0.062
368.15 K
  activity coefficient: 0.952 ± 0.06

## CCC(C)CC [3-methylpentane] + CCCCCCCCCCCC[N+](C)(C)CCOc1ccccc1.N#C[N-]C#N
328.15 K
  activity coefficient: 5.3 ± 0.36
338.15 K
  activity coefficient: 5.37 ± 0.37
348.15 K
  activity coefficient: 5.41 ± 0.37
358.15 K
  activity coefficient: 5.46 ± 0.37
368.15 K
  activity coefficient: 5.5 ± 0.37
378.15 K
  activity coefficient: 5.5 ± 0.37

## CCC(C)CC [3-methylpentane] + CCCCCCCCCCCC[N+](C)(C)CCOc1ccccc1.O=S(=O)([N-]S(=O)(=O)C(F)(F)F)C(F)(F)F
318.15 K
  activity coefficient: 2.74 ± 0.19
328.15 K
  activity coefficient: 2.81 ± 0.19
338.15 K
  activity coefficient: 2.88 ± 0.2
348.15 K
  activity coefficient: 2.95 ± 0.2
358.15 K
  activity coefficient: 3.01 ± 0.2
368.15 K
  activity coefficient: 3.07 ± 0.21

## C=C(C)c1ccccc1 [(1-methylethenyl)benzene] + CCCCCCCCCCCC[N+](C)(C)CCOc1ccccc1.N#C[N-]C#N
328.15 K
  activity coefficient: 1.11 ± 0.07
338.15 K
  activity coefficient: 1.18 ± 0.08
348.15 K
  activity coefficient: 1.25 ± 0.08
358.15 K
  activity coefficient: 1.32 ± 0.09
368.15 K
  activity coefficient: 1.39 ± 0.09
378.15 K
  activity coefficient: 1.46 ± 0.1

## C=C(C)c1ccccc1 [(1-methylethenyl)benzene] + CCCCCCCCCCCC[N+](C)(C)CCOc1ccccc1.O=S(=O)([N-]S(=O)(=O)C(F)(F)F)C(F)(F)F
318.15 K
  activity coefficient: 0.784 ± 0.051
328.15 K
  activity coefficient: 0.831 ± 0.054
338.15 K
  activity coefficient: 0.881 ± 0.056
348.15 K
  activity coefficient: 0.931 ± 0.059
358.15 K
  activity coefficient: 0.985 ± 0.062
368.15 K
  activity coefficient: 1.03 ± 0.06

## CC(C)=O [acetone] + CCCCCCCCCCCC[N+](C)(C)CCOc1ccccc1.N#C[N-]C#N
328.15 K
  activity coefficient: 0.721 ± 0.048
338.15 K
  activity coefficient: 0.745 ± 0.049
348.15 K
  activity coefficient: 0.767 ± 0.05
358.15 K
  activity coefficient: 0.791 ± 0.051
368.15 K
  activity coefficient: 0.813 ± 0.053
378.15 K
  activity coefficient: 0.834 ± 0.054

## CC(C)=O [acetone] + CCCCCCCCCCCC[N+](C)(C)CCOc1ccccc1.O=S(=O)([N-]S(=O)(=O)C(F)(F)F)C(F)(F)F
318.15 K
  activity coefficient: 0.331 ± 0.032
328.15 K
  activity coefficient: 0.353 ± 0.032
338.15 K
  activity coefficient: 0.375 ± 0.033
348.15 K
  activity coefficient: 0.398 ± 0.034
358.15 K
  activity coefficient: 0.421 ± 0.035
368.15 K
  activity coefficient: 0.445 ± 0.036

## CC#N [acetonitrile] + CCCCCCCCCCCC[N+](C)(C)CCOc1ccccc1.N#C[N-]C#N
328.15 K
  activity coefficient: 0.756 ± 0.05
338.15 K
  activity coefficient: 0.766 ± 0.05
348.15 K
  activity coefficient: 0.775 ± 0.051
358.15 K
  activity coefficient: 0.785 ± 0.051
368.15 K
  activity coefficient: 0.793 ± 0.052
378.15 K
  activity coefficient: 0.801 ± 0.052

## CC#N [acetonitrile] + CCCCCCCCCCCC[N+](C)(C)CCOc1ccccc1.O=S(=O)([N-]S(=O)(=O)C(F)(F)F)C(F)(F)F
318.15 K
  activity coefficient: 0.473 ± 0.037
328.15 K
  activity coefficient: 0.489 ± 0.037
338.15 K
  activity coefficient: 0.506 ± 0.038
348.15 K
  activity coefficient: 0.523 ± 0.039
358.15 K
  activity coefficient: 0.539 ± 0.039
368.15 K
  activity coefficient: 0.555 ± 0.04

## c1ccccc1 [benzene] + CCCCCCCCCCCC[N+](C)(C)CCOc1ccccc1.N#C[N-]C#N
328.15 K
  activity coefficient: 0.835 ± 0.054
338.15 K
  activity coefficient: 0.87 ± 0.056
348.15 K
  activity coefficient: 0.905 ± 0.057
358.15 K
  activity coefficient: 0.938 ± 0.059
368.15 K
  activity coefficient: 0.972 ± 0.061
378.15 K
  activity coefficient: 1.01 ± 0.06

## c1ccccc1 [benzene] + CCCCCCCCCCCC[N+](C)(C)CCOc1ccccc1.O=S(=O)([N-]S(=O)(=O)C(F)(F)F)C(F)(F)F
318.15 K
  activity coefficient: 0.569 ± 0.041
328.15 K
  activity coefficient: 0.6 ± 0.042
338.15 K
  activity coefficient: 0.629 ± 0.043
348.15 K
  activity coefficient: 0.658 ± 0.045
358.15 K
  activity coefficient: 0.687 ± 0.046
368.15 K
  activity coefficient: 0.716 ± 0.048

## CCCCO [butan-1-ol] + CCCCCCCCCCCC[N+](C)(C)CCOc1ccccc1.N#C[N-]C#N
328.15 K
  activity coefficient: 0.463 ± 0.036
338.15 K
  activity coefficient: 0.473 ± 0.037
348.15 K
  activity coefficient: 0.483 ± 0.037
358.15 K
  activity coefficient: 0.494 ± 0.038
368.15 K
  activity coefficient: 0.504 ± 0.038
378.15 K
  activity coefficient: 0.514 ± 0.038

## CCCCO [butan-1-ol] + CCCCCCCCCCCC[N+](C)(C)CCOc1ccccc1.O=S(=O)([N-]S(=O)(=O)C(F)(F)F)C(F)(F)F
318.15 K
  activity coefficient: 1.38 ± 0.09
328.15 K
  activity coefficient: 1.32 ± 0.09
338.15 K
  activity coefficient: 1.28 ± 0.08
348.15 K
  activity coefficient: 1.23 ± 0.08
358.15 K
  activity coefficient: 1.19 ± 0.08
368.15 K
  activity coefficient: 1.15 ± 0.07

## CCC(C)O (stereo not drawn) [butan-2-ol] + CCCCCCCCCCCC[N+](C)(C)CCOc1ccccc1.N#C[N-]C#N
328.15 K
  activity coefficient: 0.495 ± 0.038
338.15 K
  activity coefficient: 0.508 ± 0.038
348.15 K
  activity coefficient: 0.522 ± 0.039
358.15 K
  activity coefficient: 0.536 ± 0.039
368.15 K
  activity coefficient: 0.55 ± 0.04
378.15 K
  activity coefficient: 0.564 ± 0.041

## CCC(C)O (stereo not drawn) [butan-2-ol] + CCCCCCCCCCCC[N+](C)(C)CCOc1ccccc1.O=S(=O)([N-]S(=O)(=O)C(F)(F)F)C(F)(F)F
318.15 K
  activity coefficient: 1.23 ± 0.08
328.15 K
  activity coefficient: 1.2 ± 0.08
338.15 K
  activity coefficient: 1.17 ± 0.07
348.15 K
  activity coefficient: 1.15 ± 0.07
358.15 K
  activity coefficient: 1.12 ± 0.07
368.15 K
  activity coefficient: 1.1 ± 0.07

## CCCC=O [butanal] + CCCCCCCCCCCC[N+](C)(C)CCOc1ccccc1.N#C[N-]C#N
328.15 K
  activity coefficient: 0.766 ± 0.05
338.15 K
  activity coefficient: 0.779 ± 0.051
348.15 K
  activity coefficient: 0.79 ± 0.051
358.15 K
  activity coefficient: 0.803 ± 0.052
368.15 K
  activity coefficient: 0.816 ± 0.053
378.15 K
  activity coefficient: 0.828 ± 0.053
